According to ChEMBL document CHEMBL2401712, “Fused thiazolyl alkynes as potent mGlu5 receptor positive allosteric modulators” (Bioorg Med Chem Lett, 2013):

Columns and labels:
Assay type in all cases: cell-based
[1] = biological target: T1, Metabotropic glutamate receptor 5 (Homo sapiens, UniProt P41594); assay: Negative allosteric modulation of human mGlu5 receptor expressed in HEK293 cells assessed as inhibition of L-glutamate-induced activity after 1 hr by FLIPR assay relative to control; design: concentration or dose not given beside the values; conditions: concentration not given here
Target sequence in this assay (P41594 21-1212 limits assumed): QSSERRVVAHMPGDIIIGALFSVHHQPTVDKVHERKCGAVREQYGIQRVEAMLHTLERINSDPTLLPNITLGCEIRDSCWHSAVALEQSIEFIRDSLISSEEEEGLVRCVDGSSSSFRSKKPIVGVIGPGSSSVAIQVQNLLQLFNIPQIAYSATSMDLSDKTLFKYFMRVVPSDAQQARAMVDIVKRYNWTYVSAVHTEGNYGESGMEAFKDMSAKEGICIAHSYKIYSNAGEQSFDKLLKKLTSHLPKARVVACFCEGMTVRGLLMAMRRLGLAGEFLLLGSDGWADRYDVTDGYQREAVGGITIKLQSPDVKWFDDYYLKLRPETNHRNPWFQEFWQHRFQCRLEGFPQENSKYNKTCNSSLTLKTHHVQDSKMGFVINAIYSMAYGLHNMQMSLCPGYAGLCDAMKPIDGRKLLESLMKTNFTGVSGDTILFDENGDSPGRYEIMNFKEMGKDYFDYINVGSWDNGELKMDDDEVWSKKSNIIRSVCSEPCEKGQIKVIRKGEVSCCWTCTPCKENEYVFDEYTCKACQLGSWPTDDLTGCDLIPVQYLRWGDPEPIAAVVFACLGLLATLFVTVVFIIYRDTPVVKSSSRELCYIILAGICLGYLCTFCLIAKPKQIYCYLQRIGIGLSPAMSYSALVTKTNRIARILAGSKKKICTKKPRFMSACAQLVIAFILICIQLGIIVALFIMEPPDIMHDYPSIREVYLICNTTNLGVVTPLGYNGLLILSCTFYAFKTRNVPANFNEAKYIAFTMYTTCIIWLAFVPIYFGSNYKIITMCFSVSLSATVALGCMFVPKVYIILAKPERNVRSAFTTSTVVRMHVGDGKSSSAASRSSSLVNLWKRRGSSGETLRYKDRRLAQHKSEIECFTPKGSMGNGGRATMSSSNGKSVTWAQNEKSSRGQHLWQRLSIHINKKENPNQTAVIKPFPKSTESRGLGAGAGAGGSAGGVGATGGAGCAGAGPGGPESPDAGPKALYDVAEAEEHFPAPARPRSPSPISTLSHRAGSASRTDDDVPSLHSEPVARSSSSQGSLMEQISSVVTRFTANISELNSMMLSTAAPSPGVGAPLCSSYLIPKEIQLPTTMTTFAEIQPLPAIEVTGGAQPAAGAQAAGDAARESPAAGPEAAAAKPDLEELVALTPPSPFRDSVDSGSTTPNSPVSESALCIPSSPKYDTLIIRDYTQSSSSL

[2] = biological target: T1, Metabotropic glutamate receptor 5; assay: Negative allosteric modulation of human mGlu5 receptor expressed in HEK293 cells assessed as inhibition of L-glutamate-induced activity after 1 hr by FLIPR assay
Target sequence in this assay (P41594 whole entry): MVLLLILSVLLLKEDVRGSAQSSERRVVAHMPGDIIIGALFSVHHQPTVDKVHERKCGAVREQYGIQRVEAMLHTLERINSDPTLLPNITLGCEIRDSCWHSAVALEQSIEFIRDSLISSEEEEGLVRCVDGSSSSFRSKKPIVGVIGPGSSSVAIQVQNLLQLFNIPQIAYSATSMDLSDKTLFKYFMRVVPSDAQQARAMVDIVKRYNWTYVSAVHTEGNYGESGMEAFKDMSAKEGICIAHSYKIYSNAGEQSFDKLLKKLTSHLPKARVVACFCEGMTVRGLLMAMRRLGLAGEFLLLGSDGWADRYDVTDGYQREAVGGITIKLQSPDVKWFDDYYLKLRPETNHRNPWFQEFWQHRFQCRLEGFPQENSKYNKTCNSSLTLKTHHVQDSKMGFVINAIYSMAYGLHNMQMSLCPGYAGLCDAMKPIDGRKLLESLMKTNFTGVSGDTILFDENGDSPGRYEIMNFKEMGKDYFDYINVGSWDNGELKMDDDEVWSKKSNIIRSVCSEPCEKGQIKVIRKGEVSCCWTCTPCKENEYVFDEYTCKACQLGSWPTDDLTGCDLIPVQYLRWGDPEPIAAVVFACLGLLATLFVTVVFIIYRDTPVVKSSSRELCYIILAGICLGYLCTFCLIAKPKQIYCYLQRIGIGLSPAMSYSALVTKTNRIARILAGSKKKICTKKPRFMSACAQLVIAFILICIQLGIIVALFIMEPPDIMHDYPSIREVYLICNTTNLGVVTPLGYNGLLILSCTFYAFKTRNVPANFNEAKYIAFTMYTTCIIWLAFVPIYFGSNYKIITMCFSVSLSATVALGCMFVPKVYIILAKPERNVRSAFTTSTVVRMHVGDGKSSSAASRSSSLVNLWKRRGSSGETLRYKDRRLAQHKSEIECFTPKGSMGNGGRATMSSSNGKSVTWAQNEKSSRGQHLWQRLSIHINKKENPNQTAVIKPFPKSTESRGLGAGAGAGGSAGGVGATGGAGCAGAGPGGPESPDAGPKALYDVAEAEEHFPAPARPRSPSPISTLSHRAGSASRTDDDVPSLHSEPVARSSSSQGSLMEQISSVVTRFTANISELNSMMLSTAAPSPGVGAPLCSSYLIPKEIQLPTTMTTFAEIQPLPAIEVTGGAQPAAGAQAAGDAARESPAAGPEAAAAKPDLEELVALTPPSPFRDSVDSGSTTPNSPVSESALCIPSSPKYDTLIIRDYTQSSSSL

[3] = biological target: T1, Metabotropic glutamate receptor 5; assay: Positive allosteric modulation of human mGlu5 receptor expressed in HEK293 cells assessed as potentiation of L-glutamate-induced activity after 1 hr by FLIPR assay relative to control
Target sequence in this assay (P41594 21-1212 limits assumed): as the sequence (P41594 21-1212 limits assumed) above

[4] = biological target: T1, Metabotropic glutamate receptor 5; assay: Positive allosteric modulation of human mGlu5 receptor expressed in HEK293 cells assessed as potentiation of L-glutamate-induced activity after 1 hr by FLIPR assay
Target sequence in this assay (P41594 whole entry): as the sequence (P41594 whole entry) above

Row | Compound | inhibition [1] | IC50 [2] | Emax [3] | EC50 [4]
1 | CC1CC(C(=O)N2CCc3nc(C#Cc4cccc(F)c4)sc3C2)C1 (stereo unspecified) | 19% | > 10000 nM | 87% | 17 nM
2 | Fc1cccc(C#Cc2nc3c(s2)CN(C2CCCC2)CC3)c1 | 94% | 640 nM | -44% | > 10000 nM
3 | Cc1nc(C(=O)N2CCc3nc(C#Cc4ccccc4)sc3C2)cs1 | 3.7% | > 10000 nM | 110% | 220 nM
4 | O=C(N1CCCCC1)N1CCc2nc(C#Cc3ccccc3)sc2C1 | – | > 10000 nM | 120% | 75 nM
5 | CC1CCCC(C(=O)N2CCc3nc(C#Cc4ccccc4)sc3C2)C1 (stereo unspecified) | 20% | > 10000 nM | 260% | 100 nM
6 | O=C1NCCc2nc(C#Cc3cccnc3)sc21 | – | > 10000 nM | 120% | 51 nM
7 | O=C(C1CCOCC1)N1CCc2nc(C#Cc3ccccc3)sc2C1 | – | > 10000 nM | 120% | 290 nM
8 | O=C(C1CC1)N1CCc2nc(C#Cc3ccccc3)sc2C1 | 61% | 290 nM | -13% | > 10000 nM
9 | O=S(=O)(C1CC1)N1CCc2nc(C#Cc3ccccc3)sc2C1 | 87% | 34 nM | -12% | > 10000 nM
10 | CN(C)S(=O)(=O)N1CCc2nc(C#Cc3ccccc3)sc2C1 | 71% | 5.7 nM | -6% | > 10000 nM
11 | O=C(N1CCC(F)CC1)N1CCc2nc(C#Cc3ccccc3)sc2C1 | 15% | > 10000 nM | 100% | 74 nM
12 | O=C(C1CC12CCC2)N1CCc2nc(C#Cc3ccccc3)sc2C1 (stereo unspecified) | 10% | > 10000 nM | 95% | 3.9 nM
13 | COC1CC(C(=O)N2CCc3nc(C#Cc4ccccc4)sc3C2)C1 (stereo unspecified) | -0.2% | > 10000 nM | 43% | 640 nM
14 | O=C([C@H]1CC2CCC1C2)N1CCc2nc(C#Cc3ccccc3)sc2C1 (stereo partly specified) | 8% | > 10000 nM | 280% | 18 nM
15 | O=C1NCCc2nc(C#Cc3ccccc3)sc21 | – | > 10000 nM | 243% | 112 nM
16 | CC1CC(C(=O)N2CCc3nc(C#Cc4ccccc4)sc3C2)C1 (stereo unspecified) | 13% | > 10000 nM | 120% | 81 nM
17 | O=C1NCCc2nc(C#Cc3cccc(F)c3)sc21 | – | > 10000 nM | 310% | 290 nM
18 | O=C(C1CCCCO1)N1CCc2nc(C#Cc3ccccc3)sc2C1 (stereo unspecified) | 35% | > 10000 nM | 100% | 320 nM
19 | O=C1NCCc2nc(C#Cc3ccc(F)cc3)sc21 | – | > 10000 nM | 310% | 5200 nM
20 | O=C(C1CCC1)N1CCc2nc(C#Cc3ccccc3)sc2C1 | 81% | 370 nM | 3% | > 10000 nM
21 | COc1ccccc1C#Cc1nc2c(s1)C(=O)NCC2 | – | > 10000 nM | 44% | > 10000 nM
22 | CC(C)CN1CCc2nc(C#Cc3ccccc3)sc2C1 | 94% | 650 nM | -48% | > 10000 nM

Row | Compound | inhibition [1] | IC50 [2] | Emax [3] | EC50 [4]
23 | O=C(N1CCc2nc(C#Cc3ccccc3)sc2C1)N1CC(F)C1 | 9% | > 10000 nM | 27% | > 10000 nM
24 | Cc1cccc(C(=O)N2CCc3nc(C#Cc4ccccc4)sc3C2)c1 | – | > 10000 nM | 170% | 99 nM
25 | O=S(=O)(N1CCCC1)N1CCc2nc(C#Cc3ccccc3)sc2C1 | 78% | 36 nM | -9% | > 10000 nM
26 | CC(C)CCN1CCc2nc(C#Cc3ccccc3)sc2C1 | – | > 10000 nM | 180% | 100 nM
27 | CN1CCc2nc(C#Cc3cccc(F)c3)sc2C1 | 6% | > 10000 nM | -8% | > 10000 nM
28 | O=C(C1CCCCC1)N1CCc2nc(C#Cc3ccccc3)sc2C1 | – | > 10000 nM | 153% | 167 nM
29 | O=C(N1CCC(F)(F)CC1)N1CCc2nc(C#Cc3ccccc3)sc2C1 | 3% | > 10000 nM | 100% | 72 nM
30 | Cc1cccc(C(=O)N2CCc3nc(C#Cc4ccccc4)sc3C2)n1 | 19% | > 10000 nM | 120% | 160 nM
31 | O=C(c1cccc(F)c1)N1CCc2nc(C#Cc3ccccc3)sc2C1 | – | > 10000 nM | 160% | 30 nM
32 | O=C1c2sc(C#Cc3ccccc3)nc2CN1C1CCCC1 | – | > 10000 nM | 150% | 2.5 nM
33 | O=C(c1cccc(Cl)c1)N1CCc2nc(C#Cc3ccccc3)sc2C1 | 26% | > 10000 nM | 170% | 8.7 nM
34 | CC(C)S(=O)(=O)N1CCc2nc(C#Cc3ccccc3)sc2C1 | 75% | 11 nM | -4% | > 10000 nM
35 | O=C1c2sc(C#Cc3ccccc3)nc2CN1C1CC1 | 59% | 23 nM | 11% | > 10000 nM
36 | O=C1NCCc2nc(C#Cc3cccc(Cl)c3)sc21 | – | > 10000 nM | 120% | 2500 nM
37 | Fc1cccc(C#Cc2nc3c(s2)CN(C2CCC2)CC3)c1 | 91% | 200 nM | -40% | > 10000 nM
38 | Cc1cc(C(=O)N2CCc3nc(C#Cc4ccccc4)sc3C2)no1 | – | > 10000 nM | 71% | 1600 nM
39 | O=C(CC1CCOCC1)N1CCc2nc(C#Cc3ccccc3)sc2C1 | -2% | > 10000 nM | 45% | 470 nM
40 | Fc1cccc(C#Cc2nc3c(s2)CN(C2CCOC2)CC3)c1 (stereo unspecified) | 91% | 400 nM | -47% | > 10000 nM
41 | CC(C)S(=O)(=O)N1Cc2nc(C#Cc3ccccc3)sc2C1 | 74% | 140 nM | -35% | > 10000 nM
42 | O=S(=O)(C1CCCCC1)N1CCc2nc(C#Cc3ccccc3)sc2C1 | 81% | 480 nM | -17% | > 10000 nM
43 | O=C(C1CCCC1)N1CCc2nc(C#Cc3ccccc3)sc2C1 | 42% | > 10000 nM | 280% | 19 nM
44 | CC1CC1C(=O)N1CCc2nc(C#Cc3ccccc3)sc2C1 (stereo unspecified) | 6.3% | > 10000 nM | 42% | 9.4 nM

Row | Compound | inhibition [1] | IC50 [2] | Emax [3] | EC50 [4]
45 | O=C(c1cccc(C(F)(F)F)c1)N1CCc2nc(C#Cc3ccccc3)sc2C1 | 12% | > 10000 nM | 170% | 11 nM
46 | CN1CCC(C(=O)N2CCc3nc(C#Cc4ccccc4)sc3C2)CC1 | – | > 10000 nM | 70% | 1200 nM
47 | N#Cc1cccc(C(=O)N2CCc3nc(C#Cc4ccccc4)sc3C2)c1 | 16% | > 10000 nM | 150% | 71 nM
48 | COc1cccc(C(=O)N2CCc3nc(C#Cc4ccccc4)sc3C2)c1 | 6.7% | > 10000 nM | 150% | 29 nM
49 | O=S(=O)(N1CCCCC1)N1CCc2nc(C#Cc3ccccc3)sc2C1 | 86% | 780 nM | 6% | > 10000 nM
50 | CC(=O)N1CCc2nc(C#Cc3ccccc3)sc2C1 | 79% | 90 nM | -18% | > 10000 nM
51 | CCCCN1CCc2nc(C#Cc3ccccc3)sc2C1 | 28% | > 10000 nM | 32% | 110 nM
52 | C(#Cc1nc2c(s1)CN(C1CCCCC1)CC2)c1ccccc1 | 1% | > 10000 nM | 19% | > 10000 nM
53 | CC1CCC(C(=O)N2CCc3nc(C#Cc4ccccc4)sc3C2)CC1 (stereo unspecified) | 0% | > 10000 nM | 80% | 190 nM
54 | O=C(C1CC(F)(F)C1)N1CCc2nc(C#Cc3ccc(F)cc3)sc2C1 | 13% | > 10000 nM | 73% | 150 nM
55 | O=C1NCCc2nc(C#Cc3ccccc3F)sc21 | – | > 10000 nM | 320% | 1500 nM
56 | O=C(C1CCCO1)N1CCc2nc(C#Cc3ccccc3)sc2C1 (stereo unspecified) | -1% | > 10000 nM | 89% | 790 nM
57 | O=S(=O)(N1CCOCC1)N1CCc2nc(C#Cc3ccccc3)sc2C1 | 89% | 13 nM | 1.5% | > 10000 nM
58 | Cc1cccc(C#Cc2nc3c(s2)C(=O)NCC3)c1 | – | > 10000 nM | 50% | > 10000 nM
59 | O=S(=O)(N1CCCCC1)N1Cc2nc(C#Cc3ccccc3)sc2C1 | – | > 10000 nM | 89% | 250 nM
60 | CCC(=O)N1CCc2nc(C#Cc3ccccc3)sc2C1 | 79% | 38 nM | -17% | > 10000 nM
61 | O=C(C1CCC(F)(F)CC1)N1CCc2nc(C#Cc3ccccc3)sc2C1 | 10% | > 10000 nM | 190% | 70 nM
62 | O=C(C1CCOC1)N1CCc2nc(C#Cc3ccccc3)sc2C1 (stereo unspecified) | 45% | > 10000 nM | 96% | 130 nM
63 | O=C(N1CCc2nc(C#Cc3ccccc3)sc2C1)N1CC(F)(F)C1 | -9% | > 10000 nM | 94% | 26 nM
64 | O=C(C1CC(F)(F)C1)N1CCc2nc(C#Cc3cccc(F)c3)sc2C1 | 45% | > 10000 nM | 72% | 2.5 nM
65 | O=S(=O)(C1CCCCC1)N1Cc2nc(C#Cc3ccccc3)sc2C1 | – | > 10000 nM | 110% | 150 nM
